Source: patent US9109001B2, “3′,5′-cyclic phosphoramidate prodrugs for HCV infection” (priority 2012, dated 2015)
Where two headings read alike, the source gives them in different places.

Key:
fresh human hepatocytes = experiment: Release of active metabolite in fresh human hepatocytes; format: in vitro ADME; conditions: 10 μM
Experimental: (§1) Assay for the Release of Active Metabolite in Primary Hepatocytes: Plates of fresh human and mouse hepatocytes were obtained on ice. The medium was removed and replaced with hepatocyte culture medium (William's E supplemented with penicillin-streptomycin, 1% L-glutamine, 1% insulin-transferrin-selenium and 0.1 μM Dexamethasone (Invitrogen) or with Invitro GRO HI medium complemented with Torpedo antibiotics (Celsis)). Cells were left overnight in an incubator at 37° C. to acclimatize to culture and the medium.
(§2) Hepatocyte incubations were conducted at a final volume of 0.5 mL hepatocyte culture medium/well (0.8 million cells/well for human and 0.5 million cells/well for mouse; 12 well plate no overlay, collagen coat). Culture medium from overnight incubation of cells was removed and replaced with fresh medium, pre-warmed to 37° C., containing 10 μM of test compound from a stock solution in DMSO (final DMSO concentration was 0.1%). At each specific time point, incubation medium was removed and cell monolayers were carefully washed two times with ice-cold PBS. Following the last wash, all PBS was carefully removed and 1.0 mL of extraction solution (ice-cold 70% methanol/30% water) added. Cells were scraped off and suspended in the extraction solution, transferred to 2 mL polypropylene microfuge tubes and intracellular contents extracted overnight at −20° C.
(§3) After the overnight treatment the cellular extracts were prepared by centrifugation at 16,000×g for 10 min to remove cellular debris. The remaining sample was then dried using a refrigerated centrivap concentrator. Dry extracts were reconstituted in 1000 μL of HPLC-grade water and centrifuged at 16,000×g for 10 min. Aliquots (100 μL each) of the supernatant were transferred into a 96 well plate and internal standard (4 ng/mL final concentration) was added as the internal standard (IS) for LC-MS/MS analysis.
(§4) The incubation time points were 6, 24 and 48 hours for human hepatocytes and 1, 4, 8, 12 and 24 hours for mouse hepatocytes.

[1] = Stability in simulated gastric fluid; format: in vitro ADME; conditions: 100 μM, 2 hours at 37° C.; percent of peak area at time zero
Experimental: Stability in Simulated Gastric and Intestinal Fluids: Simulated gastric and intestinal fluids containing pepsin and pancreatin respectively were prepared according to the U.S. Pharmacopoeia USP291 procedure (www.pharmacopeia.cn/v29240/usp29nf24s0_ris1s126.html). Test compound (final concentration 100 μM) was incubated in duplicate in the appropriate fluid for 2 hours at 37° C. The samples were quenched with 200 μl cold acetonitrile, vortexed for 30 seconds and then centrifuged at 16,100 g for 10 min. The supernatants were analyzed by HPLC on a C-18 column with UV detection at 252 nm. The time 0 samples were prepared by adding SGF or SIF fluid to the quenching solvent followed by the test compound. Stability of the compound was determined by peak area the test compound after incubation and calculated as percent of the peak area observed at time zero.

[2] = Stability in fresh human whole blood; format: in vitro ADME; conditions: 0.5 μM, percent unchanged test compound
Experimental: Stability in Fresh Whole Blood: Stability of test compounds were determined in fresh human whole blood with K2EDTA as the anticoagulant (stored refrigerated at 2-8° C. and used within 7 days of receipt). The experiment was conducted with three replicates for each time point. Whole blood, pre-incubated at 37° C. for 10-15 minutes, was fortified with a solution of test compound for a final concentration of 0.5 μM and mixed for 30 sec. At intervals (0, 0.5, 1 and 2 hr), three 50-μL aliquots were combined with 200 μL (each) of an ice-cold solution of the internal standard (carbutamide 500 ng/mL in acetonitrile). The samples were vortexed for 30 sec and then centrifuged at 16,100 g for 5 min. The supernatant was analyzed by LC-MS/MS. The MS peak area ratio of the test compound versus the internal standard was calculated and percent unchanged test compound was calculated for each time point using this ratio.

[3] = Stability in human liver microsomes; format: in vitro ADME; conditions: 10 μM, 1.0 mg/mL protein, NADPH, 60 min; percent unchanged
Experimental: (§5) Stability in Liver and Intestinal Subcellular Fractions: Stability of test compounds were determined in subcellular fractions (microsomes and S9) of human liver and intestine in duplicate for each matrix. Pooled liver and intestinal microsomal, intestinal and liver S9 proteins (1.0 mg/mL), suspended in incubation buffer (100 mM potassium phosphate, pH 7.4, 5 mM MgCl2, and 0.1 mM EDTA), were preincubated for 5 min at 37° C. with 10 μM of a test compound from a 10 mM stock solution in DMSO (final DMSO concentration was 0.1%); the reaction was initiated by the addition of NADPH (3 mM final concentration). At specific times (0 and 60 min), 0.1 mL samples were taken and the reaction terminated by the addition of 4 volumes of stop solution (acetonitrile with 500 ng/mL carbutamide as an internal standard). The samples were vortexed for 30 sec and then centrifuged at 16,000 g for 10 min. 100 μL of supernatants were transferred to 96 deep-well plates preloaded with 100 μL distilled water and analyzed after mixing by LC-MS/MS. The MS peak area ratio of the test compound versus the internal standard was calculated and percent unchanged test compound over 60 minutes was calculated using this ratio.

HCV genotype 1b replicon = experiment: HCV Replicon Assay; format: cell-based; conditions: Zluc (Huh-7-derived) cells, HCV genotype 1b replicon, luciferase reporter, 72 hours, read-out: HCV Replicon EC50
Experimental: Huh-7-derived cell line (Zluc) that harbors an HCV genotype 1b replicon and a luciferase reporter gene was grown in Dulbecco's Modified Eagle Medium (DMEM) supplemented with 10% fetal bovine serum, 2 mM GlutaMAX, 1% MEM nonessential amino acids, 100 IU/mL penicillin, 100 μg/mL streptomycin, and 0.5 mg/mL Geneticin® (G418). For dose response testing the cells were seeded in 96-well plates at 7.5×10^3 cells per well in a volume of 50 μL, and incubated at 37° C./5% CO2. Drug solutions were made up freshly in Huh-7 media as 2× stocks. Ten additional 5-fold dilutions were prepared from these stocks in DMEM without G418. At least three hours after Zluc cells were seeded, drug treatment was initiated by adding 50 μL of drug dilutions to the plates in duplicate. Final concentrations of drug ranged from 100 μM to […]. Cells were then incubated at 37° C./5% CO2. Alternatively, compounds were tested at two concentrations (1 μM and 10 μM). […] For this, media was removed from the plates via gentle tapping. Fifty microliters of ONE-glo luciferase assay reagent was added to each well. The plates were shaken gently for 3 min at room temperature and luminescence was measured on a Victor^3 V 1420 multilabel counter (Perkin Elmer) with a 1 second read time using a 700 nm cut-off filter. The EC50 values were calculated from dose response curves from the resulting best-fit equations determined by Microsoft Excel and XLfit 4.1 software. When screening at two fixed concentrations, the results were expressed as % inhibition at 1 μM and 10 μM.

mouse hepatocytes = experiment: Release of active metabolite in mouse hepatocytes; format: in vitro ADME; conditions: 10 μM
Experimental: as §1, §2, §3, §4

[4] = Stability in human liver S9 fraction; format: in vitro ADME; conditions: 10 μM, 1.0 mg/mL protein, NADPH, 60 min; percent unchanged
Experimental: as §5

Row | SMILES | FHH TP AUC (pmol · hr/mill cells) (fresh human hepatocytes) | FHH TP Cmax (pmol/mill cells) (fresh human hepatocytes) | FHH TP (24 hr) (fresh human hepatocytes; 24 hr) | Stability SGF [1] [%] | Stability WB_Human (37° C.; 2 hr) [2] [%] | Stability HLM (1 hr) [3] [%] | EC50 (HCV genotype 1b replicon; Hepatitis C virus, 72 h) [nM] | MsH AUC (pmol · hr/mill cells) (mouse hepatocytes) | MsH Cmax (pmol/mill cells) (mouse hepatocytes) | Stability HLS9 (1 hr) [4] [%] | FHH TP (48 hr) (fresh human hepatocytes; 48 hr) | EC50 (HCV genotype 1b replicon) [nM]
1 | CCOc1nc(N)nc2c1ncn2[C@@H]1O[C@@H]2COP(=O)(N[C@@H](C)C(=O)OC(C)C)O[C@H]2[C@@]1(C)F (single isomer, unassigned) [Compound 1 Diastereomer 1] | 9842 | 687 | BLD^a | 87 | 87 | 11 | 250 to 1000 | 4700 | 2296 | 51 |  | 
2 | CCOc1nc(N)nc2c1ncn2[C@@H]1O[C@@H]2COP(=O)(N[C@@H](C)C(=O)OC(C)C)O[C@H]2[C@@]1(C)F (single isomer, unassigned) [Compound 1 Diastereomer 2] | 5774 | 309 |  | 83 | 67 | 52 |  | 1451 | 884 | 66 | BLD^a | < 250
